Tests used:
Experiment in all cases: relative viability (nuclei count vs DMSO), 5 days (fraction); higher = more cells survive
Alisertib + Palbociclib = compound: COc1cc(Nc2ncc3c(n2)-c2ccc(Cl)cc2C(c2c(F)cccc2OC)=NC3)ccc1C(=O)O [Alisertib] + CC(=O)c1c(C)c2cnc(Nc3ccc(N4CCNCC4)cn3)nc2n(C2CCCC2)c1=O [Palbociclib] (partner 0.5 µM)
Procedure, shortened: (§1)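 Values are medians from duplicate plates. Each reflects relative viability, defined as the nuclei count of treated wells over that of vehicle wells. Lung cancer cell lines in 1536-well plates were pin-tool dosed one day after seeding with one drug alone or with a fixed anchor-drug dose plus five library-drug doses (not always all listed) in √10 steps, then fixed, stained and imaged at 4× after 5 days.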

Alisertib + Olaparib = compound: COc1cc(Nc2ncc3c(n2)-c2ccc(Cl)cc2C(c2c(F)cccc2OC)=NC3)ccc1C(=O)O [Alisertib] + O=C(c1cc(Cc2n[nH]c(=O)c3ccccc23)ccc1F)N1CCN(C(=O)C2CC2)CC1 [Olaparib] (partner 8 µM)
Procedure, shortened: as §1

Alisertib + Alpelisib = compound: COc1cc(Nc2ncc3c(n2)-c2ccc(Cl)cc2C(c2c(F)cccc2OC)=NC3)ccc1C(=O)O [Alisertib] + Cc1nc(NC(=O)N2CCC[C@H]2C(N)=O)sc1-c1ccnc(C(C)(C)C(F)(F)F)c1 [Alpelisib] (partner 2 µM)
Procedure, shortened: as §1

Alisertib + Pemetrexed = compound: COc1cc(Nc2ncc3c(n2)-c2ccc(Cl)cc2C(c2c(F)cccc2OC)=NC3)ccc1C(=O)O [Alisertib] + Nc1nc2[nH]cc(CCc3ccc(C(=O)N[C@@H](CCC(=O)O)C(=O)O)cc3)c2c(=O)[nH]1 [Pemetrexed] (partner 0.2 µM)
Procedure, shortened: as §1

| Cell Line | relative viability (Alisertib + Palbociclib; first compound 0.005 µM) | relative viability (Alisertib + Palbociclib; first compound 0.01581 µM) | relative viability (Alisertib + Palbociclib; first compound 0.05 µM) | relative viability (Alisertib + Palbociclib; first compound 0.1581 µM) | relative viability (Alisertib + Palbociclib; first compound 0.5 µM) | relative viability (Alisertib + Olaparib; first compound 0.005 µM) | relative viability (Alisertib + Olaparib; first compound 0.01581 µM) | relative viability (Alisertib + Olaparib; first compound 0.05 µM) | relative viability (Alisertib + Olaparib; first compound 0.1581 µM) | relative viability (Alisertib + Olaparib; first compound 0.5 µM) | relative viability (Alisertib + Alpelisib; first compound 0.005 µM) | relative viability (Alisertib + Alpelisib; first compound 0.01581 µM) | relative viability (Alisertib + Alpelisib; first compound 0.05 µM) | relative viability (Alisertib + Alpelisib; first compound 0.1581 µM) | relative viability (Alisertib + Alpelisib; first compound 0.5 µM) | relative viability (Alisertib + Pemetrexed; first compound 0.005 µM) | relative viability (Alisertib + Pemetrexed; first compound 0.01581 µM) | relative viability (Alisertib + Pemetrexed; first compound 0.05 µM) | relative viability (Alisertib + Pemetrexed; first compound 0.1581 µM) | relative viability (Alisertib + Pemetrexed; first compound 0.5 µM) |
| --- | --- | --- | --- | --- | --- | --- | --- | --- | --- | --- | --- | --- | --- | --- | --- | --- | --- | --- | --- | --- |
| 201T | 0.351 | 0.33 | 0.327 | 0.28 | 0.24 | 0.823 | 0.803 | 0.711 | 0.361 | 0.33 | 0.985 | 0.997 | 0.964 | 0.783 | 0.378 | 0.314 | 0.299 | 0.358 | 0.335 | 0.274 |
| A549 | – | – | – | – | – | 0.317 | 0.305 | 0.0782 | 0.079 | 0.0413 | 0.531 | 0.333 | 0.144 | 0.059 | 0.0557 | – | – | – | – | – |
| A-427 | 0.493 | 0.444 | 0.255 | 0.276 | 0.24 | 0.65 | 0.563 | 0.204 | 0.177 | 0.227 | 1.03 | 0.922 | 0.173 | 0.165 | 0.14 | 0.818 | 0.5 | 0.266 | 0.265 | 0.251 |
| ABC-1 | 0.697 | 0.661 | 0.67 | 0.371 | 0.316 | 0.534 | 0.708 | 0.677 | 0.555 | 0.432 | 0.979 | 0.724 | 0.929 | 0.475 | 0.223 | – | – | – | – | – |
| BEN | 0.45 | 0.444 | 0.348 | 0.327 | 0.384 | 0.983 | 0.917 | 0.295 | 0.269 | 0.341 | 1.05 | 0.923 | 0.37 | 0.232 | 0.218 | 0.629 | 0.784 | 0.335 | 0.358 | 0.342 |
| CAL-12T | 0.327 | 0.259 | 0.188 | 0.138 | 0.172 | 0.66 | 0.534 | 0.194 | 0.159 | 0.195 | 1.19 | 0.382 | 0.217 | 0.249 | 0.183 | 1.14 | 1.15 | 0.242 | 0.235 | 0.176 |
| COR-L23 | 0.253 | 0.234 | 0.142 | 0.112 | 0.0947 | 0.304 | 0.298 | 0.183 | 0.137 | 0.101 | 0.777 | 0.697 | 0.369 | 0.155 | 0.0816 | 0.197 | 0.196 | 0.189 | 0.179 | 0.134 |
| COR-L 105 | 0.368 | 0.417 | 0.356 | 0.33 | 0.37 | 0.689 | 0.641 | 0.502 | 0.498 | 0.311 | 0.741 | 0.849 | 0.71 | 0.343 | 0.245 | 1.08 | 0.995 | 0.952 | 0.607 | 0.298 |
| Calu-6 | – | – | – | – | – | 0.545 | 0.385 | 0.237 | 0.207 | 0.13 | 0.771 | 0.566 | 0.249 | 0.188 | 0.191 | – | – | – | – | – |
| ChaGo-K-1 | 0.817 | 0.686 | 0.219 | 0.203 | 0.166 | 0.355 | 0.339 | 0.174 | 0.17 | 0.154 | – | – | – | – | – | 0.238 | 0.281 | 0.238 | 0.189 | 0.169 |
| EKVX | 0.386 | 0.431 | 0.27 | 0.183 | 0.176 | 0.848 | 0.674 | 0.282 | 0.207 | 0.203 | 0.819 | 0.811 | 0.49 | 0.215 | 0.185 | 0.364 | 0.377 | 0.266 | 0.172 | 0.187 |
| EMC-BAC-2 | 0.51 | 0.416 | 0.4 | 0.382 | 0.268 | 0.452 | 0.356 | 0.291 | 0.294 | 0.214 | 0.701 | 0.567 | 0.296 | 0.259 | 0.143 | 0.445 | 0.429 | 0.447 | 0.405 | 0.3 |
| EPLC-272H | 0.32 | 0.318 | 0.303 | 0.236 | 0.238 | 0.671 | 0.471 | 0.293 | 0.0899 | 0.116 | 0.858 | 0.838 | 0.486 | 0.266 | 0.133 | 0.284 | 0.245 | 0.172 | 0.138 | 0.118 |
| H3255 | 0.313 | 0.314 | 0.312 | 0.278 | 0.249 | 0.547 | 0.566 | 0.385 | 0.292 | 0.24 | 0.797 | 0.687 | 0.463 | 0.252 | 0.199 | 0.516 | 0.572 | 0.457 | 0.309 | 0.255 |
| HARA | 0.288 | 0.242 | 0.243 | 0.161 | 0.147 | 0.763 | 0.703 | 0.17 | 0.328 | 0.146 | 0.86 | 0.878 | 0.363 | 0.129 | 0.0864 | 0.262 | 0.211 | 0.26 | 0.21 | 0.125 |
| HCC-15 | 0.661 | 0.465 | 0.296 | 0.213 | 0.146 | 0.689 | 0.444 | 0.191 | 0.165 | 0.145 | 0.875 | 0.662 | 0.229 | 0.148 | 0.106 | 0.234 | 0.212 | 0.187 | 0.143 | 0.135 |
| HCC-44 | 0.949 | 0.85 | 0.636 | 0.616 | 0.338 | 0.944 | 0.856 | 0.501 | 0.508 | 0.391 | 0.759 | 0.716 | 0.458 | 0.17 | 0.0925 | 0.566 | 0.601 | 0.545 | 0.45 | 0.394 |

From the supplement of paper PMC10307832
